According to patent US6472369B1, “Anticancer compounds and methods” (The Regents of the University of Michigan, priority 1996, dated 2002):
Where no end group is shown, it is not given here. [ ]: non-standard residue; d: D form. hCys = N[C@@H](CCS)C(=O)O

Legend:
[1] = test system: rat metastatic prostate carcinoma MatLyLu (MLL) cells; assay: SU-ECM invasion assay, rat MatLyLu prostate carcinoma cells; format: cell-based; conditions: 10% FCS, FIG. 8
Procedure: (§1) Adult Strongylocentrotus purpuratus sea urchins were obtained from Pacific BioMarine, and their embryos were cultured to the early pluteus stage in artificial sea water at 15° C. SU-ECM were prepared from them by treatment with nonionic detergent and strerilized by dilution in the appropriate media.
(§2) Cells were harvested by rinsing in Hanks' balanced salt solution, followed by brief treatment with 0.25% trypsin, 0.02% EDTA, and pelleting and resuspension in the appropriate medium with or without 5% FCS at a density of about 50,000 cells per ml. When appropriate, purified bovine plasma fibronectin (Sigma), purified 120 kDa chymotryptic fragment (Gibco BRL), PHSRN (SEQ ID NO:1) or PHSCN (SEQ ID NO:86) peptides (synthesized at the Biomedical Research Core Facilities of the University of Michigan), or GRGDSP (SEQ ID NO:83) or GRGESP (SEQ ID NO:84) peptides (Gibco BRL) were added to the resuspended cells prior to placement of the cells on SU-ECM. In each well of a plate used for an invasion assay, SU-ECM were placed in 0.5 ml of the appropriate medium, and 0.5 ml of the resuspended cells dropped on their exterior surfaces. Invasion assays were incubated 1 to 16 hours prior to assay. If some circumstances, invasion assays were fixed in phosphate-buffered saline (PBS) with 2% formaldehyde for 5 minutes at room temperature, then rinsed into PBS.
(§3) Invasion assays were coded and scored blindly by microscopic examination under phase contrast at 200- and 400-fold magnification. Each cell contacting an SU-ECM was scored for its position relative to the exterior or interior surfaces. A cell was judged to have invaded if it was located on an interior surface below the focal plane passing through the upper surface of the SU-ECM, but above the focal plane passing through its lower surface. The minimum viability of the cells in each assay was always ascertained at the time of assay by determining the fraction of spread, adherent cells on the bottom of each well scored.
(§4) An invasion frequency is defined as the fraction of cells in contact with basement membranes which were located in their interiors at the time of assay. Thus, an invasion frequency of 1 denotes invasion by 100% of the cells in contact with basement membranes. Invasion frequencies were determined multiple times for each cell type assayed. For each type of cell assayed the mean and standard deviation of the invasion frequencies were calculated.
The result of adding a varying concentration of the PHSCN (SEQ ID NO:86) peptide to PHSRN-induced (SEQ ID NO:1) MLL cells in serum free media is shown in FIG. 7B, where 100 ng per ml of PHSRN (SEQ ID NO:1) was used to induce invasion.
The procedure described in Example 10, was employed using SU-ECM substrates in 10% FCS and PHS(hC)N (SEQ ID NO:85) instead of PHSCN (SEQ ID NO:86). The result of adding varying concentrations of the PHS(hC)N (SEQ ID NO:85) peptide to serum-induced MLL cells indicates this peptide also has an inhibitory affect on cell invasion (see FIG. 8).

keratinocytes = assay: Keratinocyte invasion of serum-free SU-ECM; format: cell-based
From the text: Since, during wound reepithelialization, keratinocytes migrate through the connective tissue of the provisional matrix to “wall off” portions of the wound, as well as through the adjacent stroma, it is not surprising that they are also stimulated to migrate through the matrix of SU-ECM invasion substrates by the PHSRN (SEQ ID NO:1) sequence. […] Recruitment of fibroblasts or monocytes/macrophages whose paracrine, regulatory effects on a variety of neighboring cells are required for the early stages of wound healing is contemplated as a highly efficient and effective way to stimulate the cascade of regulatory interactions involved in wound healing because these cells will secrete the active factors or cytokines in the correct temporal sequences and spatial locations to ensure their optimal activities. Because it efficiently induces keratinocyte migration through the extracellular matrix in vitro, the PHSRN (SEQ ID NO:1) peptide is also likely to stimulate wound reepithelialization directly. The use of the PHSRN (SEQ ID NO:1) peptide or structurally related molecules according to the present invention is to stimulate the entry of cells such as fibroblasts and monocyte/macrophages into the provisional matrix of a wound, so that the entering cells themselves secrete the factors and cytokines active in inducing or potentiating wound healing. […]

[2] = test system: normal, neonatal fibroblasts; assay: Invasion of gelatin- and antibody-depleted Matrigel by fibroblasts; format: cell-based; conditions: Matrigel depleted by gelatin and antibody panning, FIG. 4
Procedure: Anti-fibronectin antibody-coated wells: Wells of a 24-well plate were coated with an anti-fibronectin antibody. A mouse monoclonal antibody to human fibronectin was obtained from Oncogene Science (Catalog #CP13). Each well was incubated with 1 ml of antibody at a concentration of 30 μl/ml for 2 hours at room temperature. Each well was then incubated with a solution of 3% BSA in PBS for 2 hours at room temperature. Following the two incubation periods, the wells were thoroughly washed with PBS and stored at −20 C. until use.
Depleting Matrigel of Fibronectin: Matrigel was panned over eight gelatin-coated wells (as described above in Example 2) to remove most of the fibronectin and its fragments. Thereafter, the Matrigel was placed in the antibody-coated wells to remove any remaining fragments of fibronectin which contain the cell-binding domain but not the gelatin-binding domain. The Matrigel was incubated in an ice bucket on an orbital shaker at 4 C. for 2 hours. Once the Matrigel was depleted, it was collected in Eppendorf tubes. The firbonectin-depleted Matrigel was plated on a 48-well plate (150 μl/well), sterilized under a UV light for 10 minutes and incubated at 37 C. overnight. The Matrigel formed a gel and the following day, cells were added to the wells. […]

[3] = test system: neonatal, human fibroblasts; assay: Fibroblast invasion of SU-ECM basement membranes; format: cell-based; conditions: for stimulation of fibroblast invasion of basement membranes in vitro: in the presence of serum or under serum-free conditions
Procedure: as §1
as §2, with “If some circumstances, invasion assays were fixed in phosphate-buffered saline (PBS) with 2% formaldehyde for 5 minutes at room temperature, then rinsed into PBS.” left out
as §3, with “A cell was judged to have invaded if it was located on an interior surface below the focal plane passing through the upper surface of the SU-ECM, but above the focal plane passing through its lower surface.” left out
as §4, with “Thus, an invasion frequency of 1 denotes invasion by 100% of the cells in contact with basement membranes.” left out, “calculated. […]” for “calculated.”

[4] = test system: metastatic DU-145 prostate cancer cells; assay: SU-ECM invasion assay, DU-145 prostate cancer cells; format: cell-based, human; conditions: DU-145 cells
[5] = test system: metastatic SUM-52 PE breast cancer cells; assay: SU-ECM invasion assay, SUM-52 PE breast cancer cells; format: cell-based, human; conditions: SUM-52 cells
Procedure: Human breast carcinoma cell lines SUM 52 PE and SUM 44 PE were originally cultured from the pleural effusions of patients with metastatic breast cancer; and SUM 102 was cultured from a primary, microinvasive breast carcinoma (Ethier, S. P., Mahack, M. L., Gullick, W. J., Frank, T. S., and Weber, B. L. Differential isolation of normal luminal mammary epithelial cells and breast cancer cells from primary and metastatic sites using selective media. Cancer Res. 53: 627-635).
as §1, §2, §3, §4
The method of Example 4 is employed, with the addition of varying concentrations of the PHSCN (SEQ ID NO:86) peptide.
Thus, the procedure in Example 4 provides a method for determining the inhibitory potential of the PHSCN (SEQ ID NO:86) peptide by comparing the number of cell invasions in the presence of the PHSCN (SEQ ID NO:86) peptide, with the number of cell invasions in the absence of the PHSCN (SEQ ID NO:86) peptide.

[6] = test system: DU-145 metastatic prostate cancer cells; assay: Invasion of fibronectin-depleted Matrigel by DU-145 cells; format: cell-based, human; conditions: 0.5 μl/ml peptide added to gelatin-panned Matrigel, FIG. 3
Procedure: This example describes a purification approach for removal of plasma fibronectin (and/or cellular fibronectin) from a substrate (Matrigel). In this example, removal was attempted by successive panning on gelatin. Eight wells of 24-well plate were coated with a 2% gelatin solution (the gelatin was obtained from Becton Dickinson Labware, Catalog #11868). The wells were filled with the gelatin solution which had been heated to 50 C. and incubated for 3 minutes. Then the solution was removed and the wells were allowed to air dry. Following drying, the wells were thoroughly rinsed with ddH2O followed by two rinses with PBS. The plates were again allowed to dry; thereafter they were stored at −20 C. until use. Matrigel was thawed on ice and then added to one of the wells of a gelatin-coated plate (between 800 μl and 1 ml of Matrigel was added to a well of a 24-well plate). The plate was placed in a bucket of ice in a 4 C. room on an orbital shaker where the Matrigel was incubated in the well for two hours (although overnight incubation can be used). Following the incubation, the Matrigel was moved from the first well to a second well and then incubated for two hours under the same conditions. This process was repeated until the Matrigel had been incubated on all eight wells of the gelatin-coated plate.
Following the depletion of the Matrigel, it was collected in Eppendorf tubes. […]

Substance	inhibition of serum-induced invasion of SU-ECM ([1]; higher concentrations)	inhibition of serum-induced invasion of SU-ECM ([1]; lower concentrations)	stimulation of keratinocyte invasion (keratinocytes)	induction of fibroblast invasiveness on depleted Matrigel [2]	stimulation of fibroblast invasion of basement membranes in vitro [3]	induction of fibroblast invasion of SU-ECM ([3]; serum-free SU-ECM)	induction of invasion of the SU-ECM substrate [4]	induction of invasion of the SU-ECM substrate [5]	restoration of DU-145 invasiveness on depleted Matrigel [6]
PHS(hC)N: homo-cysteine containing peptide (PHS[hCys]N)	completely inhibits invasion	substantially inhibits invasion							
Pro-His-Ser-Arg-Asn (PHSRN)			stimulate keratinocyte invasion	invasiveness of the fibroblasts could be induced	sufficient to stimulate fibroblast invasion	induced	induced to invade	induced to invade	sufficient to restore the full DU-145 invasiveness
intact plasma fibronectin: purified bovine plasma fibronectin (Sigma); a significant component of serum					fails to stimulate fibroblast invasion		induced to invade	induced to invade	
